According to patent US20250059188A1, “ARYLSULPHONAMIDE COMPOUNDS” (Anaxis Pharma Pty Ltd, priority 2021, published 2025):
Like-named read-outs stand apart in the source and are kept apart here.

Key:
human MLKL (full length) = human MLKL (full length) (Homo sapiens (Human), UniProt Q8NB16); test: KINOMEscan binding assay, human MLKL (full length); conditions: equilibrium dissociation constant
In short: (§1)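 Competition binding format with qPCR detection. Kinases, either phage-fused from E. coli lysates or HEK-293-derived with a DNA tag, bound ligand-coated beads in the presence of compound (11 points, 3-fold steps, 1% DMSO, top usually 30,000 nM). Kd from nonlinear Hill fitting with slope −1.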

human RIPK1 = human RIPK1 (Homo sapiens (Human), UniProt Q13546); test: KINOMEscan binding assay, human RIPK1; conditions: equilibrium dissociation constant
In short: as §1

human RIPK3 = human RIPK3 (Homo sapiens (Human), UniProt Q9Y572); test: KINOMEscan binding assay, human RIPK3; conditions: equilibrium dissociation constant
In short: as §1

mouse MLKL (full length) = mouse MLKL (full length) (Mus musculus (Mouse), UniProt Q9D2Y4); test: KINOMEscan binding assay, mouse MLKL (full length); conditions: equilibrium dissociation constant
Experimental: Binding affinity of the test compounds for human MLKL (full length), mouse MLKL (full length), human RIPK1 and human RIPK3 was determined using the KINOMEscan™ technology developed by DiscoverX (USA; http://www.discoverx.com). The assay was conducted according to manufacturer instructions.
Kinase assays. For most assays, kinase-tagged T7 phage strains were grown in parallel in 24-well blocks in an E. coli host derived from the BL21 strain. E. coli were grown to log-phase and infected with T7 phage from a frozen stock (multiplicity of infection=0.4) and incubated with shaking at 32° C. until lysis (90-150 minutes). The lysates were centrifuged (6,000×g) and filtered (0.2 μm) to remove cell debris. The remaining kinases were produced in HEK-293 cells and subsequently tagged with DNA for qPCR detection. […] The liganded beads were blocked with excess biotin and washed with blocking buffer (SeaBlock (Pierce), 1% BSA, 0.05% Tween 20, 1 mM DTT) to remove unbound ligand and to reduce non-specific phage binding. […] All reactions were performed in polypropylene 384-well plates in a final volume of 20 μL. […] The kinase concentration in the eluates was measured by qPCR.
An 11-point 3-fold serial dilution of each test compound was prepared in 100% DMSO at 100× final test concentration and subsequently diluted to 1× in the assay (final DMSO concentration=1%). Most Kos were determined using a compound top concentration=30,000 nM.
KD for each test compound was calculated with a standard dose-response curve using the Hill equation (equation (1)): […]
The Hill Slope was set to −1.
Curves were fitted using a non-linear least square fit with the Levenberg-Marquardt algorithm.

[1] = test system: Immortalised Mouse Dermal Fibroblasts (MDFs); test: Inhibition of TSI induced necroptosis in mouse dermal fibroblasts (CellTitre-Glo); conditions: MDF cells, TSI cocktail (TNF, Smac mimetic, IDN-6556), read-out: Inhibition of TSI-induced necroptosis (IC50 cell-based assay) in MDF
Experimental: Cellular Assay: Screening Compounds for Inhibition of TSI Induced Necroptosis in, 384 well plate format. • Cell Line ID: Immortalised Mouse Dermal Fibroblasts (MDFs). • Cell Concentration (cells/well): Final cell density is 2200 cells per well. • Cell growth medium: DMEM medium+7.4% Fetal Bovine Serum (FBS). Cells are cultured in Corning 150 cm^2 tissue culture flasks with vented caps at 37° C./10% CO2. • Incubation: Plates were incubated for 30 minutes following addition of compounds and then 3 hours incubation with death stimuli (TSI cocktail) at 37° C./10% CO2 in a humidified incubator. • Compound concentration: 36 μM starting concentration, 1:3 dilution, 10 point • DMSO final concentration (% v/v): 0.3%. Compounds in TSI Cocktail (T: TNF; S: Smac Mimetic; I: IDN-6556) and their Final Concentrations: • rhTNF (100 ng/ml) • Compound A (500 nM)—Smac mimetic, Tetralogic and SYNthesis med chem • IDN-6556 (10 μM)—Selleckchem (S7775)
The cellular assay was carried out according to the following steps: • 1. Each well was prepared by sequential addition of: • a. 40 μL of cell suspension (5.5×10^4 cells/mL) was added to each well to provide a final cell concentration of 2,200 cells per well. • b. After 24 hours, DMSO (control; columns 1-2 and 23-24) or compound in DMSO—addition was performed using acoustic transfer of nL volumes of stock compound to give final test concentrations of 36, 12, 4, 1.3, 0.44, 0.148, 0.049, 0.016, 0.005 and 0.002 μM. All wells were backfilled with DMSO to a final total volume in the well of 100 nL. • c. Following compound/DMSO addition in step (b), Plates were incubated for 30 minutes at 37° C./10% CO2 in a humidified incubator and then 10 μL of 5×TSI cocktail (except to positive controls; columns 2 and 24) was added to each well. • 2. After 3 hours, plate was removed from the 37° C. incubator and equilibrated to room temperature for 15 minutes. • 3. 15 μL of room temperature CellTitre-Glo2™ (Promega™) was added to each well. • 4. Shook plates for 2 minutes (˜600 rpm) and incubated at room temperature for 15 minutes to allow signal to stabilise. • 5. Read luminescence readout on a plate reader.
Percent viability was calculated for each compound according to equation (2): […]
10 point titration curves were fitted with the 4 parameter logistic nonlinear regression model and the IC50 reported reflect the inflection point of the curve for curve fitting.
• Assay involving the TSI cocktail (T: TNF; S: Smac mimetic; I: IDN-6556): TSI treatment ensures that cells specifically undergo necroptotic cell death. TNF activates the TNF receptor, Smac mimetic directs the signal away from proinflammatory signaling and toward the RIPK1/RIPK3-mediated cell death pathways, and IDN-6556 (Caspase inhibitor) ensures that the apoptotic response is blocked leaving only the programmed necrosis response. The compounds' activity (solution in DMSO) tested in this TSI-induced assay was evaluated by determining the number of viable cells in culture by measuring the amount of ATP present as measured by CelltiterGlo.

U937 cells = test: Counter screen: U937 cell viability without TSQ cocktail (off-target effect); design: species or system human; conditions: read-out: Off-target effect (IC50 cell-based assay)
In short: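 U937 cells (20,000/well) exposed to compound (10-point 1:3 titration from 36 μM, 0.3% DMSO) without TSQ cocktail for 48 h at 37 °C/5% CO2. Viability read as ATP by CellTiter-Glo luminescence; IC50 from 4-parameter logistic fit.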

[2] = test system: U937 human histiocytic leukemia cell line; test: Inhibition of TSQ induced necroptosis in U937 cells (CellTitre-Glo); conditions: 48 hours, read-out: Inhibition of TSQ-induced necroptosis (IC50 cell-based assay)
In short: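 U937 cells (20000/well) treated with compound (10-point, 1:3 from 36 μM, 0.3% DMSO) plus TSQ cocktail (hTNF-Fc 100 ng/ml, Smac mimetic 500 nM, Q-VD-OPh 10 μM), 48 h at 37 °C. Viability by CellTiter-Glo luminescence; IC50 from 4-parameter logistic fit. Counter screen: same cells without TSQ.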

[3] = Homo sapiens, U-937, compound without TSQ cocktail
[4] = Homo sapiens, U-937, TSQ cocktail (TNF, Smac mimetic, Q-VD-OPh)
[5] = TSQ cocktail (TNF, Smac mimetic, Q-VD-OPh)

human RIPK1, sequence (Q13546 whole entry): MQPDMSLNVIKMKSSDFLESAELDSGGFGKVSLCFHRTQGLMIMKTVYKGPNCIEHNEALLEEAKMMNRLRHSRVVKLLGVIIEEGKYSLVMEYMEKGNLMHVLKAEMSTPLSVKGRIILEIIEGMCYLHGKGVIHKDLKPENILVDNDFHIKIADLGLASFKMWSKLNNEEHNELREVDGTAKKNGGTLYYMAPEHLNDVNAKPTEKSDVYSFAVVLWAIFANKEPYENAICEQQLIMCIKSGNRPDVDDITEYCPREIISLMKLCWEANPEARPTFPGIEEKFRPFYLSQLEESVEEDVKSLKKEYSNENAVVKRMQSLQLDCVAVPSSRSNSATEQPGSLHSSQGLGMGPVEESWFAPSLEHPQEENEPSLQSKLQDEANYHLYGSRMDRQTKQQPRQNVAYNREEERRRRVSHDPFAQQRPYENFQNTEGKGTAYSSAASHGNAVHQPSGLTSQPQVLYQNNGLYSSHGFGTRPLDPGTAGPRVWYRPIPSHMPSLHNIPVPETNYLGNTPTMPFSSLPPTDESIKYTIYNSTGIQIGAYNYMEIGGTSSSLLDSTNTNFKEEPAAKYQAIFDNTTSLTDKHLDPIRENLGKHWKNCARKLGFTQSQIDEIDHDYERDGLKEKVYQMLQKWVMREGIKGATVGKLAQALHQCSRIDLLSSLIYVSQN
human RIPK3, sequence (Q9Y572 whole entry): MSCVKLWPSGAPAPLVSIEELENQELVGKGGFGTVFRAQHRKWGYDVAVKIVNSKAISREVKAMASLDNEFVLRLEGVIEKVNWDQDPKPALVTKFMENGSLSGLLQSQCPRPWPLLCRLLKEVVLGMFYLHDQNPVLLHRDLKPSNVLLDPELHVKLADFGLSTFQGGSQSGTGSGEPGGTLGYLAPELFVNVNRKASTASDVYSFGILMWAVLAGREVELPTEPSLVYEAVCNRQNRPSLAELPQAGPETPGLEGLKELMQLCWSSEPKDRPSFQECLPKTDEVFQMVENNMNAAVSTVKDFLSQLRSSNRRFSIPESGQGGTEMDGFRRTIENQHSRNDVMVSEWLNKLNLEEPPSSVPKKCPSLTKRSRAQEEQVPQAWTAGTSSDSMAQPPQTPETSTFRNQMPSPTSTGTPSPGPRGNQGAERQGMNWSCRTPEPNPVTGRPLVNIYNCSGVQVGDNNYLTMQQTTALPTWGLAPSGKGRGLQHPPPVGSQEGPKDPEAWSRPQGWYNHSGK
human MLKL (full length), sequence (Q8NB16 whole entry, the tested form may be a part): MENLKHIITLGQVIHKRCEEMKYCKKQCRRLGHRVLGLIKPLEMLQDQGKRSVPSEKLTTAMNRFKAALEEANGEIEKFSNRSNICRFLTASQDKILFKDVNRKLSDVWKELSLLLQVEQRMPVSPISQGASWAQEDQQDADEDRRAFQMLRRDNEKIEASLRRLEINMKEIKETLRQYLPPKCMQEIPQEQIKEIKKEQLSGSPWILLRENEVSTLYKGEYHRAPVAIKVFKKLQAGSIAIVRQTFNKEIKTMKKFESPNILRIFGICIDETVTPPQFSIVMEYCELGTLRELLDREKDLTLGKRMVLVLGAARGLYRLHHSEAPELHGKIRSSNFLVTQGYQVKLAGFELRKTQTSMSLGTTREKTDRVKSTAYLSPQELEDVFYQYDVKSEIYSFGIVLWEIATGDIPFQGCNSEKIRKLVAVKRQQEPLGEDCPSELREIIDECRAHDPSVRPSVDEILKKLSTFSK
mouse MLKL (full length), sequence (Q9D2Y4 whole entry): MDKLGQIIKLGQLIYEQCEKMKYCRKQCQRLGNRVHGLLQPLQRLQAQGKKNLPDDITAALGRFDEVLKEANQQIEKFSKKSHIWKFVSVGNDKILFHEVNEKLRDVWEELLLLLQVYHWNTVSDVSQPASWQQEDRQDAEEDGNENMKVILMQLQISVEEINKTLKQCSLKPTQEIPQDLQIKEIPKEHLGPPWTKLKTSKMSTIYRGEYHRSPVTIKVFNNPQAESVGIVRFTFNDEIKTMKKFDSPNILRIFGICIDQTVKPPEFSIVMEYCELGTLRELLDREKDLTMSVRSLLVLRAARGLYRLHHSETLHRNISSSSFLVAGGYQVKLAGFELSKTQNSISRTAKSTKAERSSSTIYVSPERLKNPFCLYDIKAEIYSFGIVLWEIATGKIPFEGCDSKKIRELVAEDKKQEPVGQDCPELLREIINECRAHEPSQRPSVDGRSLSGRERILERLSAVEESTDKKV

| SMILES | Kd (human MLKL (full length)) | Kd (human RIPK1) | Kd (human RIPK3) | Kd (mouse MLKL (full length)) | IC50 ([1]; Mus musculus, Fibroblast, 3 h) | IC50 (U937 cells; [3]) | IC50 [2, 4] | IC50 ([1]; 3 hours) | IC50 (U937 cells; compound without TSQ cocktail) | IC50 [2, 5] |
| --- | --- | --- | --- | --- | --- | --- | --- | --- | --- | --- |
| C[C@H](Oc1cc(-c2coc3c(-c4cnn(C)c4)cnc(N)c23)ccc1NS(=O)(=O)C(F)F)c1ccc(F)cc1 [Compound 8, (S)-N-(4-(4-amino-7-(1-methyl-1H-pyrazol-4-yl)furo[3,2-c]pyridin-3-yl)-2-(1-(4-fluorophenyl)ethoxy)phenyl)-1,1-difluoromethanesulfonamide] | < 1 nM | > 10000 nM | > 10000 nM | < 1 nM | – | – | – | – | – | – |
| C[C@H](Oc1cc(-c2nn(C)c3c(-c4cnn(C5CCNC(C(F)(F)F)C5)c4)cnc(N)c23)ccc1NS(=O)(=O)C(F)F)c1ccc(F)cc1 (stereo partly drawn) [Compound 149, N-(4-(4-amino-1-methyl-7-(1-(2-(trifluoromethyl)piperidin-4-yl)-1H-pyrazol-4-yl)-1H-pyrazolo[4,3-c]pyridin-3-yl)-2-((S)-1-(4-fluorophenyl)ethoxy)phenyl)-1,1-difluoromethanesulfonamide] | – | – | – | – | 100 to 1000 nM | > 10000 nM | < 10 nM | – | – | – |
| CCS(=O)(=O)Nc1ccc(-c2coc3c(-c4cnn(C5CCOCC5)c4)cnc(N)c23)cc1OCc1ccc(F)cc1 [Compound 3, N-(4-(4-amino-7-(1-(tetrahydro-2H-pyran-4-yl)-1H-pyrazol-4-yl)furo[3,2-c]pyridin-3-yl)-2-((4-fluorobenzyl)oxy)phenyl)ethanesulfonamide] | < 1 nM | > 10000 nM | > 10000 nM | – | 1000 to 10000 nM | – | – | – | – | – |
| C[C@H](Oc1cc(-c2nn(C)c3c(-c4cnn(C5CCN(C)C(C)(C)C5)c4)cnc(N)c23)ccc1NS(=O)(=O)C(F)F)c1ccc(F)cc1 (single isomer, unassigned) [Compound 155, N-(4-(4-amino-1-methyl-7-(1-((S*)-1,2,2-trimethylpiperidin-4-yl)-1H-pyrazol-4-yl)-1H-pyrazolo[4,3-c]pyridin-3-yl)-2-((S)-1-(4-fluorophenyl)ethoxy)phenyl)-1,1-difluoromethanesulfonamide] | 1 to 100 nM | > 10000 nM | > 10000 nM | – | – | – | – | 100 to 1000 nM | > 10000 nM | < 10 nM |
| C[C@H](Oc1cc(-c2nn(C)c3c(-c4cnn(C5CCC(N(C)C)C5)c4)cnc(N)c23)ccc1NS(=O)(=O)C(F)F)c1ccc(F)cc1 (stereo partly drawn) [Compound 168, N-(4-(4-amino-7-(1-(3-(dimethylamino)cyclopentyl)-1H-pyrazol-4-yl)-1-methyl-1H-pyrazolo[4,3-c]pyridin-3-yl)-2-((S)-1-(4-fluorophenyl)ethoxy)phenyl)-1,1-difluoromethanesulfonamide] | – | – | – | – | 100 to 1000 nM | > 10000 nM | 10 to 1000 nM | – | – | – |
| C[C@H](Oc1cc(-c2nn(C)c3c(-c4cnn(C5CCN(C)C6(CC6)C5)c4)cnc(N)c23)ccc1NS(=O)(=O)C(F)F)c1ccc(F)cc1 (single isomer, unassigned) [Compound 171, N-(4-(4-amino-1-methyl-7-(1-((R*)-4-methyl-4-azaspiro[2.5]octan-7-yl)-1H-pyrazol-4-yl)-1H-pyrazolo[4,3-c]pyridin-3-yl)-2-((S)-1-(4-fluorophenyl)ethoxy)phenyl)-1,1-difluoromethanesulfonamide] | 1 to 100 nM | > 10000 nM | > 10000 nM | – | – | – | – | < 100 nM | > 10000 nM | 10 to 1000 nM |
| [2H]C([2H])([2H])N1CCC(n2cc(-c3cnc(N)c4c(-c5ccc(NS(=O)(=O)C(F)F)c(O[C@@H](C)c6ccc(F)cc6)c5)nn(C)c34)cn2)CC1(C)C (stereo partly drawn) [Compound 152, N-(4-(4-amino-7-(1-(2,2-dimethyl-1-(methyl-d3)piperidin-4-yl)-1H-pyrazol-4-yl)-1-methyl-1H-pyrazolo[4,3-c]pyridin-3-yl)-2-((S)-1-(4-fluorophenyl)ethoxy)phenyl)-1,1-difluoromethanesulfonamide] | – | – | – | – | 100 to 1000 nM | > 10000 nM | < 10 nM | – | – | – |
| C[C@H](Oc1cc(-c2nn(C)c3c(-c4cnn(C5CCN(C)C(C(F)F)C5)c4)cnc(N)c23)ccc1NS(=O)(=O)C(F)F)c1ccc(F)cc1 (stereo partly drawn) [Compound 158, N-(4-(4-amino-7-(1-(2-(difluoromethyl)-1-methylpiperidin-4-yl)-1H-pyrazol-4-yl)-1-methyl-1H-pyrazolo[4,3-c]pyridin-3-yl)-2-((S)-1-(4-fluorophenyl)ethoxy)phenyl)-1,1-difluoromethanesulfonamide] | 1 to 100 nM | – | – | – | < 100 nM | > 10000 nM | < 10 nM | – | – | – |
| Cn1nc(-c2ccc(NS(=O)(=O)C(F)F)c(OCC3CCCCC3)c2)c2c(N)ncc(-c3cnn(C4CCOCC4)c3)c21 [Compound 150, N-(4-(4-amino-1-methyl-7-(1-(tetrahydro-2H-pyran-4-yl)-1H-pyrazol-4-yl)-1H-pyrazolo[4,3-c]pyridin-3-yl)-2-(cyclohexylmethoxy)phenyl)-1,1-difluoromethanesulfonamide] | < 1 nM | > 10000 nM | > 10000 nM | – | 1000 to 10000 nM | – | – | – | – | – |
| C[C@H](Oc1cc(-c2nn(C)c3c(-c4cnn(C5CCOCC5)c4)cnc(N)c23)ccc1NS(=O)(=O)C(F)F)c1ccc(Cl)cc1 [Compound 137, (S)-N-(4-(4-amino-1-methyl-7-(1-(tetrahydro-2H-pyran-4-yl)-1H-pyrazol-4-yl)-1H-pyrazolo[4,3-c]pyridin-3-yl)-2-(1-(4-chlorophenyl)ethoxy)phenyl)-1,1-difluoromethanesulfonamide] | – | – | – | – | 1000 to 10000 nM | > 10000 nM | < 10 nM | – | – | – |
